PubChem BioAssay (NCI)
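Exposure lasted 48 hours, with cells grown in 96-well plates and compounds tested at five concentrations. Definition used: TGI = concentration required for complete inhibition of growth.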

Assays:
Experiment in all cases: NCI anticancer screen, dose series, 48 h
[1] = test system: A498 renal
[2] = test system: ACHN renal
[3] = test system: CAKI-1 renal
[4] = test system: CCRF-CEM leukemia
[5] = test system: COLO 205 colon
[6] = test system: DLD-1 colon
[7] = test system: DMS 114 small cell lung
[8] = test system: DMS 273 small cell lung
[9] = test system: EKVX NSCLC
[10] = test system: HCT-116 colon
[11] = test system: HCT-15 colon
[12] = test system: HL-60(TB) leukemia
[13] = test system: HOP-62 NSCLC
[14] = test system: HOP-92 NSCLC
[15] = test system: HT29 colon
[16] = test system: K-562 leukemia
[17] = test system: KM20L2 colon
[18] = test system: LOX IMVI melanoma
[19] = test system: LXFL 529 NSCLC
[20] = test system: M14 melanoma
[21] = test system: M19-MEL melanoma
[22] = test system: MALME-3M melanoma
[23] = test system: MOLT-4 leukemia
[24] = test system: NCI-H226 lung
[25] = test system: NCI-H460 lung
[26] = test system: NCI-H522 lung
[27] = test system: OVCAR-3 ovarian
[28] = test system: OVCAR-8 ovarian
[29] = test system: RPMI-8226 leukemia
[30] = test system: RXF-631 renal
[31] = test system: SF-268 CNS
[32] = test system: SF-295 CNS
[33] = test system: SF-539 CNS
[34] = test system: SK-MEL-2 melanoma
[35] = test system: SK-MEL-28 melanoma
[36] = test system: SK-MEL-5 melanoma
[37] = test system: SK-OV-3 ovarian
[38] = test system: SN12C renal
[39] = test system: SNB-19 CNS
[40] = test system: SNB-75 CNS
[41] = test system: SNB-78 CNS
[42] = test system: SW-620 colon
[43] = test system: TK-10 renal
[44] = test system: U251 CNS
[45] = test system: UACC-62 melanoma
[46] = test system: UO-31 renal
[47] = test system: XF 498 CNS
[48] = test system: 786-0 renal
[49] = test system: A549 NSCLC
[50] = test system: HCC-2998 colon
[51] = test system: HOP-18 NSCLC
[52] = test system: IGROV1 ovarian
[53] = test system: KM12 colon
[54] = test system: NCI-H23 lung
[55] = test system: OVCAR-4 ovarian
[56] = test system: OVCAR-5 ovarian
[57] = test system: RXF 393 renal
[58] = test system: SR leukemia
[59] = test system: UACC-257 melanoma

With COc1ccc(/C(Cl)=C(\C=O)c2ccc(Cl)c(Cl)c2)cc1OC the TGI [1] was 30.4 µM, the TGI [2] was 18.2 µM and the TGI [3] was 18.8 µM. The TGI [4] was 8.72 µM, the TGI [5] was 33.7 µM and the TGI [6] was 20.3 µM. It also gave a TGI [7] of 33.9 µM, a TGI [8] of 21.7 µM and a TGI [9] of 30.6 µM. The TGI [10] was 15.2 µM, the TGI [11] was 20.7 µM and the TGI [12] was 6.67 µM. The TGI [13] was 31.7 µM, the TGI [14] was 13.8 µM and the TGI [15] was 8.77 µM. It also gave a TGI [16] of over 100 µM, a TGI [17] of 18.8 µM and a TGI [18] of 13.6 µM. The TGI [19] was 13.7 µM, the TGI [20] was 26.3 µM and the TGI [21] was 23 µM. It also gave a TGI [22] of 42.5 µM, a TGI [23] of 5.76 µM and a TGI [24] of 18.6 µM. The TGI [25] was 12.4 µM, the TGI [26] was 6.53 µM and the TGI [27] was 26.3 µM. It also gave a TGI [28] of 57.7 µM, a TGI [29] of 5.5 µM and a TGI [30] of 16.6 µM. The TGI [31] was 18.5 µM, the TGI [32] was 15.9 µM and the TGI [33] was 19.2 µM. The TGI [34] was 15 µM, the TGI [35] was 28 µM and the TGI [36] was 26.6 µM. The TGI [37] was 75.4 µM, the TGI [38] was 18.7 µM and the TGI [39] was 65.9 µM. The TGI [40] was 0.938 µM, the TGI [41] was 31.2 µM and the TGI [42] was 16.3 µM. For the same compound, the TGI [43] was 51.4 µM, the TGI [44] was 15 µM and the TGI [45] was 24.2 µM. The TGI [46] was 20.7 µM and the TGI [47] was 7.95 µM.
For CCCCCCCCCCCCNC1(C)CNCCCNCCNCCCNC1, the TGI [48] was 3.14 µM, the TGI [49] was 3.2 µM and the TGI [2] was 3.41 µM. For the same compound, the TGI [3] was 3.63 µM, the TGI [5] was 3.2 µM and the TGI [6] was 3.07 µM. The TGI [8] was 1.6 µM, the TGI [9] was 12.8 µM and the TGI [50] was 3.22 µM. For the same compound, the TGI [10] was 2.59 µM, the TGI [51] was 3.07 µM and the TGI [13] was 3.83 µM. The TGI [14] was 4.55 µM, the TGI [15] was 2.95 µM and the TGI [52] was 2.35 µM. The TGI [53] was 2.89 µM, the TGI [17] was 3.1 µM and the TGI [18] was 3.25 µM. The TGI [19] was 3.05 µM, the TGI [20] was 3.21 µM and the TGI [21] was 3.13 µM. For the same compound, the TGI [22] was 3.47 µM, the TGI [23] was 3.05 µM and the TGI [24] was 3.21 µM. The TGI [54] was 3.12 µM, the TGI [25] was 2.69 µM and the TGI [26] was 3.22 µM. The TGI [27] was 3.28 µM, the TGI [55] was 3.82 µM and the TGI [56] was 4.54 µM. It also gave a TGI [28] of 2.92 µM, a TGI [29] of 3.55 µM and a TGI [57] of 2.93 µM. It also gave a TGI [30] of 3.57 µM, a TGI [32] of 2.88 µM and a TGI [33] of 3.29 µM. It also gave a TGI [34] of 3.34 µM, a TGI [35] of 3.29 µM and a TGI [36] of 3.06 µM. For the same compound, the TGI [37] was 3.21 µM, the TGI [38] was 3.05 µM and the TGI [40] was 3.15 µM. The TGI [58] was 3.58 µM, the TGI [42] was 3.27 µM and the TGI [43] was 3.1 µM. The TGI [44] was 2.3 µM, the TGI [59] was 3.19 µM and the TGI [45] was 3.25 µM. For the same compound, the TGI [46] was 5.83 µM and the TGI [47] was 3.35 µM.
